Measured values taken from patent US10899738B2 (THE REGENTS OF THE UNIVERSITY OF MICHIGAN, priority 2016, dated 2021).
Like-named read-outs stand apart in the source and are kept apart here.

Assays:
menin protein = menin protein (Homo sapiens (Human), UniProt O00255); assay: biochemical; assay type: binding; details: FP competitive binding; menin protein 4 nM, FAM-MM2 probe 2 nM; read-out: Menin Binding Affinity IC50
In short: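 Competitive fluorescence polarization assay using FAM-labelled MLL1 peptide probe FAM-MM2 (2 nM final) preincubated with menin (4 nM final) in PBS with 0.02% bovine γ-globulin, 4% DMSO and 0.01% Triton X-100. Compounds were added and incubated 30 min at room temperature. IC50 came from nonlinear regression of competition curves, with Ki also derived.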

[1] = Cell growth inhibition, CellTiter-Glo Luminescent Cell Viability Assay; assay type: cell-based
Experimental: Cell growth inhibitory activity of representative menin inhibitors was determined using CellTiter-Glo® Luminescent Cell Viability Assay. Cells were seeded in 384-well white opaque cell culture plates at a density of 2,000 cells/well with serially diluted compounds and incubated at 37° C. in an atmosphere of 95% air and 5% CO2 for 4 days. Cell viability was determined using the CellTiter-Glo® Luminescent Cell Viability Assay Kit (Promega, Madison, Wis.) according to the manufacture's instruction. Briefly, a volume of CellTiter-Glo® Reagent equal to the volume of cell culture medium was added to each well, and then the plates were incubated at room temperature for 10-20 minutes. The luminescent signal was measured using a Tecan Infinite M1000 multimode microplate reader (Tecan, Morrisville, N.C.). The half maximal inhibitory concentration (IC50) was calculated using the GraphPad Prism 5 software (GraphPad Software, La Jolla, Calif.).

[2] = MOLM-13, 96 h, read-out: Cell Growth Inhibition IC50 (μM) MOLM13, MOLM13 cells, 4 days, CellTiter-Glo
[3] = MV4-11, 96 h, read-out: Cell Growth Inhibition IC50 (μM) MV4, 11, MV4, 11 cells, 4 days, CellTiter-Glo

menin protein, sequence (O00255 whole entry): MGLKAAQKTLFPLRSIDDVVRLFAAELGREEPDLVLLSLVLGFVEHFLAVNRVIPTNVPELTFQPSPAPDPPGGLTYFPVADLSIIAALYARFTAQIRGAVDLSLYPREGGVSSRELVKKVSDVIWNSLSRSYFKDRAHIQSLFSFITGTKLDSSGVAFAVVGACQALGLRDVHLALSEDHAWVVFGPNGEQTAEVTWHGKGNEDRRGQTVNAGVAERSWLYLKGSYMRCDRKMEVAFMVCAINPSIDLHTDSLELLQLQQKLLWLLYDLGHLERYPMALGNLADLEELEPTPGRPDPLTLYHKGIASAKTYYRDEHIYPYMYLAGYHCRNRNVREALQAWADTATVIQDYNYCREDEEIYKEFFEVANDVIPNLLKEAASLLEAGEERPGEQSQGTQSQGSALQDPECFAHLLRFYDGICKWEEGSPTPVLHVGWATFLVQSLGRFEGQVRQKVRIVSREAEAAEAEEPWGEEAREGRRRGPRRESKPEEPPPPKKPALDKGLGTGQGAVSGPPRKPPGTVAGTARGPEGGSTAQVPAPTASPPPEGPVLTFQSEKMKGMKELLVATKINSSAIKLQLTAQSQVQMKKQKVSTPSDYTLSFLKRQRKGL

Compound	IC50 (menin protein)	IC50 [1, 2]	IC50 [1, 3]
CNC(=O)N[C@@H]1CCC[C@H]1C1(C2CCN(CC3CN(c4ccc(S(=O)(=O)c5ccncc5)cc4)C3)CC2)CN(C)Cc2ccccc21 (mixture of isomers) [compound 278, rac-1-methyl-3-((1R,2S)-2-(2-methyl-4-(1-((1-(4-(pyridin-4-ylsulfonyl)phenyl)azetidin-3-yl)methyl)piperidin-4-yl)-1,2,3,4-tetrahydroisoquinolin-4-yl)cyclopentyl)urea]	296 nM	2.12 µM	2.27 µM
CC(=O)N[C@H]1CCC[C@@H]1C(C#N)(c1ccccc1)C1CCN(CC2CN(c3ccc(S(=O)(=O)C4CC4)cc3)C2)CC1 (mixture of isomers) [compound 281, rac-N-((1S,2R)-2-(cyano(1-((1-(4-(cyclopropylsulfonyl)phenyl)azetidin-3-yl)methyl)piperidin-4-yl)(phenyl)methyl)cyclopentyl) acetamide]	29 nM	2.35 µM	0.55 µM
CNC(=O)N[C@H]1CCC[C@@H]1C1(C2CCN(CC3CN(c4ccc(S(=O)(=O)C5CC5)cc4)C3)CC2)CN(C)Cc2ccccc21 (mixture of isomers) [compound 283, rac-1-((1S,2R)-2-(4-(1-((1-(4-(cyclopropylsulfonyl)phenyl)azetidin-3-yl)methyl)piperidin-4-yl)-2-methyl-1,2,3,4-tetrahydroisoquinolin-4-yl)cyclopentyl)-3-methylurea]	10 nM	0.53 µM	0.21 µM
CNC(=O)N[C@H]1CCC[C@@H]1C1(C2CCN(CC3CN(c4ccc(S(=O)(=O)c5cnn(C)c5)cc4)C3)CC2)CN(C)Cc2ccccc21 (mixture of isomers) [compound 284, rac-1-methyl-3-((1S,2R)-2-(2-methyl-4-(1-((1-(4-((1-methyl-1H-pyrazol-4-yl)sulfonyl)phenyl)azetidin-3-yl)methyl)piperidin-4-yl)-1,2,3,4-tetrahydroisoquinolin-4-yl)cyclopentyl)urea]	11 nM	> 10 µM	2.59 µM
CNC(=O)N[C@H]1CCC[C@@H]1C1(C2CCN(CC3CN(c4ccc(S(=O)(=O)C5CC5)cc4)C3)CC2)CNCc2ccccc21 (mixture of isomers) [compound 285, rac-1-((1S,2R)-2-(4-(1-((1-(4-(cyclopropylsulfonyl)phenyl)azetidin-3-yl)methyl)piperidin-4-yl)-1,2,3,4-tetrahydroisoquinolin-4-yl)cyclopentyl)-3-methylurea]	9 nM	12.4 µM	2.48 µM
CC(=O)N[C@H]1CCC[C@@H]1C1(C2CCN(CC3CN(c4ccc(S(=O)(=O)c5cnn(C)c5)cc4)C3)CC2)CNCc2ccccc21 (mixture of isomers) [compound 286, rac-N-((1S,2R)-2-(4-(1-((1-(4-((1-methyl-1H-pyrazol-4-yl)sulfonyl)phenyl)azetidin-3-yl)methyl)piperidin-4-yl)-1,2,3,4-tetrahydroisoquinolin-4-yl)cyclopentyl)acetamide]	4 nM	5.69 µM	0.48 µM
CNC(=O)N[C@H]1CCC[C@@H]1C1(C2CCN(CC3CN(c4ccc(S(=O)(=O)C5CC5)cc4)C3)CC2)CN(C(C)C)Cc2ccccc21 (mixture of isomers) [compound 288, rac-1-((1S,2R)-2-(4-(1-((1-(4-(cyclopropylsulfonyl)phenyl)azetidin-3-yl)methyl)piperidin-4-yl)-2-isopropyl-1,2,3,4-tetrahydroisoquinolin-4-yl)cyclopentyl)-3-methylurea]	12 nM	48.8 µM	0.35 µM
CCN1Cc2ccccc2C(C2CCN(CC3CN(c4ccc(S(=O)(=O)C5CC5)cc4)C3)CC2)([C@H]2CCC[C@@H]2NC(=O)NC)C1 (mixture of isomers) [compound 289, rac-1-((1S,2R)-2-(4-(1-((1-(4-(cyclopropylsulfonyl)phenyl)azetidin-3-yl)methyl)piperidin-4-yl)-2-ethyl-1,2,3,4-tetrahydroisoquinolin-4-yl)cyclopentyl)-3-methylurea]	4 nM	0.32 µM	0.17 µM
CCN1Cc2ccccc2C(C2CCN(CC3CN(c4ccc(S(=O)(=O)c5ccccc5)cc4)C3)CC2)([C@H]2CCC[C@@H]2NC(=O)NC)C1 (mixture of isomers) [compound 290, rac-1-((1S,2R)-2-(2-ethyl-4-(1-((1-(4-(phenylsulfonyl)phenyl)azetidin-3-yl)methyl)piperidin-4-yl)-1,2,3,4-tetrahydroisoquinolin-4-yl)cyclopentyl)-3-methylurea]	9 nM	0.32 µM	0.11 µM
CC(=O)O[C@H]1CCC[C@@H]1C1(C2CCN(CCCOc3ccc(C#N)cc3)CC2)CN(C)Cc2ccc(F)cc21 (mixture of isomers) [compound 314, rac-(1S,2R)-2-(4-(1-(3-(4-cyanophenoxy)propyl)piperidin-4-yl)-6-fluoro-2-methyl-1,2,3,4-tetrahydroisoquinolin-4-yl)cyclopentyl acetate]	31 nM	> 10 µM	2.97 µM
CC(=O)O[C@H]1CCC[C@@H]1C1(C2CCN(CC3CN(c4ccc(S(=O)(=O)C5CC5)cc4)C3)CC2)CN(C)Cc2ccc(F)cc21 (mixture of isomers) [compound 316, rac-(1S,2R)-2-(4-(1-((1-(4-(cyclopropylsulfonyl)phenyl)azetidin-3-yl)methyl)piperidin-4-yl)-6-fluoro-2-methyl-1,2,3,4-tetrahydroisoquinolin-4-yl)cyclopentyl acetate]	3 nM	1.8 µM	0.3 µM
COC(=O)N[C@H]1CCC[C@@H]1C(C#N)(c1ccccc1)C1CCN(CC2CN(c3ccc(S(=O)(=O)C4CC4)cc3)C2)CC1 (mixture of isomers) [compound 319, rac-methyl ((1S,2R)-2-(cyano(1-((1-(4-(cyclopropylsulfonyl)phenyl)azetidin-3-yl)methyl)piperidin-4-yl)(phenyl)methyl)cyclopentyl)carbamate]	31 nM	2.77 µM	0.33 µM
CNC(=O)N[C@H]1CCC[C@@H]1C(CN)(c1ccccc1)C1CCN(CC2CN(c3ccc(S(=O)(=O)c4ccccc4)cc3)C2)CC1 (mixture of isomers) [compound 321, rac-1-((1S,2R)-2-(2-amino-1-phenyl-1-(1-((1-(4-(phenylsulfonyl)phenyl)azetidin-3-yl)methyl)piperidin-4-yl)ethyl)cyclopentyl)-3-methylurea]	4 nM	1.25 µM	0.73 µM
COC(=O)N[C@H]1CCC[C@@H]1C(C#N)(c1ccccc1)C1CCN(CC2CN(c3ccc(S(=O)(=O)c4ccccc4)cc3)C2)CC1 (mixture of isomers) [compound 347, methyl (rac-(1S,2R)-2-(cyano(phenyl)(1-((1-(4-(phenylsulfonyl)phenyl)azetidin-3-yl)methyl)piperidin-4-yl)methyl)cyclopentyl) carbamate]	14 nM	0.44 µM	0.36 µM
COC(=O)N[C@H]1CCC[C@@H]1C(C#N)(c1ccccc1)C1CCN(CC2CN(c3ccc(S(=O)(=O)c4ccc(C(=O)O)cc4)cc3)C2)CC1 (mixture of isomers) [compound 351, rac-4-((4-(3-((4-(cyano((1R,2S)-2-((methoxycarbonyl)amino)cyclopentyl)(phenyl)methyl)piperidin-1-yl)methyl)azetidin-1-yl)phenyl)sulfonyl)benzoic acid]	15 nM	16.1 µM	3.02 µM
